Experimental findings from patent publication US20090143279A1 (priority 2007, published 2009) are described below.

Where two headings read alike, the source gives them in different places.

Assay [1] deals with mitochondrial membrane potential. Format: cell-based, mouse. Conditions: Conc 20 μM.
For a further assay, the system named is cytochrome c. Type of assay: cell-based, mouse.
The next assay relates to OXPHOS gene expression. Type of assay: cell-based, mouse. Conditions: Conc 20 μM.
In another assay the test system is C2C12 myotubes. Conditions: Conc 20 μM.
In the next assay the test system is reactive oxygen species. Type of assay: cell-based, mouse. To be noted: Conc 20 μM.
A further assay concerns mtOXPHOS transcripts. Type of assay: cell-based, mouse. Conditions: Conc 20 μM.
In another assay the test system is nuOXPHOS transcripts. Type of assay: cell-based, mouse. Conditions: Conc 20 μM.
In assay [2] the test system is cellular dehydrogenase activity. Conditions: Conc 20 μM.
[3] abbreviates: composite Z-score vs mock-treated (DMSO) wells.
Where [4] appears, read: composite Z-score vs mock-treated (DMSO) wells, Conc 20 μM.
The mark [5] stands for this setting: normalized composite Z-score vs mock-treated (DMSO) wells.
[6] abbreviates: composite Z-score vs DMSO wells.
The mark [7] stands for this setting: composite Z-score vs DMSO wells, Conc 20 μM.
The mark [8] stands for this setting: normalized score vs mock-treated (DMSO) wells.

cytochrome c, sequence (P62897 whole entry): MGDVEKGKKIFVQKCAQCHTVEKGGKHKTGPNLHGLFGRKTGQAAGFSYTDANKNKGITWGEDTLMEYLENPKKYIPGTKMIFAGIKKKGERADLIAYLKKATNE

As for `C=C1C2CC[C@@]3(C)[C@H](c4ccoc4)OC(=O)C[C@]13O[C@H]1CC(=O)C(C)(C)[C@H](C(O)C(=O)OC)[C@@]21C` (stereo partly drawn) [6-hydroxyangolensic acid methyl ester], the ΔΨm in assay [1] (setting [3]) was found to be 0.463. Further, in the assay with cytochrome c (setting [4]), the cyt c is given as 0.817. Besides, in the assay on OXPHOS gene expression (setting [3]), the GE-HTS was −1.426. The compound also registered a Viability with C2C12 myotubes (setting [3]) of 1.224. In addition, the ROS in the assay with reactive oxygen species (setting [3]) is listed as −0.249. The same compound came in with a mitoOX with mtOXPHOS transcripts (setting [3]) of −1.206. For the same compound, the nucOX with nuOXPHOS transcripts (setting [3]) is −1.425. Also, in assay [2] (setting [3]), the MTT was −0.490.

As to `CC(C)c1ccc2c(c1)CC[C@H]1[C@](C)(C(N)=O)CCC[C@]21C` [dehydroabietamide], the ΔΨm in assay [1] (setting [5]) is recorded as 1.642. The cyt c in the assay on cytochrome c (normalized composite Z-score vs mock-treated (DMSO) wells, Conc 20 μM) came to 0.030. In the assay on OXPHOS gene expression (setting [5]), this compound gave a GE-HTS of −0.843. For the same compound, in the assay with C2C12 myotubes (setting [5]), the Viability amounted to 0.807. For the same compound, the ROS in the assay on reactive oxygen species (setting [5]) is listed as −0.130. This compound also yielded a mitoOX in the assay on mtOXPHOS transcripts (setting [5]) of −0.877. This compound came in with a nucOX in the assay on nuOXPHOS transcripts (setting [5]) of −0.731. Moreover, the MTT in assay [2] (setting [5]) was −0.187.

For `C[C@@H]1C(=O)O[C@H]2[C@H]1CC[C@@]1(C)C=CC(=O)[C@@]3(C)O[C@@]213` [epoxy (4,5alpha)-4,5-dihydrosantonin], in assay [1] (setting [3]), the ΔΨm is recorded as 0.199. In addition, the cyt c with cytochrome c (setting [4]) stood at 0.552. The GE-HTS in the assay on OXPHOS gene expression (setting [3]) is −0.736. In the assay with C2C12 myotubes (setting [3]), this compound displayed a Viability of 0.133. The compound also returned an ROS in the assay on reactive oxygen species (setting [3]) of −1.367. Besides, the mitoOX with mtOXPHOS transcripts (setting [3]) is on record as −0.901. For the same compound, in the assay with nuOXPHOS transcripts (setting [3]), the nucOX was −0.614. In addition, in assay [2] (setting [3]), the MTT came out at 0.041.

In assay [1] (setting [6]), `Cn1cnc2c1c(=O)[nH]c(=O)n2C` [theobromine] showed a ΔΨm of −0.847. In addition, the cyt c with cytochrome c is listed as 0.007; with cytochrome c (setting [7]) it was −0.026. In the assay with OXPHOS gene expression (setting [6]), this compound showed a GE-HTS of −0.561. Also, the Viability in the assay on C2C12 myotubes (setting [6]) is given as −0.264. The same compound came in with an ROS in the assay with reactive oxygen species (setting [6]) of 0.179. For the same compound, the mitoOX in the assay with mtOXPHOS transcripts (setting [6]) is reported as −0.609. The nucOX in the assay on nuOXPHOS transcripts (setting [6]) is reported as −0.449. Further, the MTT in assay [2] (setting [6]) is −0.982.

Turning to `O=C(O)c1ccc(S(=O)(=O)N(Cl)Cl)cc1` [halazone], the ΔΨm in assay [1] (setting [6]) is on record as −0.334. In addition, in the assay on cytochrome c (setting [7]), the cyt c is −0.942. The same compound came in with a GE-HTS in the assay on OXPHOS gene expression (setting [6]) of 0.565. The same compound displayed a Viability with C2C12 myotubes (setting [6]) of −0.242. The compound also returned an ROS in the assay with reactive oxygen species (setting [6]) of 0.779. This compound registered a mitoOX with mtOXPHOS transcripts (setting [6]) of 0.385. The nucOX with nuOXPHOS transcripts (setting [6]) is 0.593. In addition, in assay [2] (setting [6]), the MTT was −0.445.

Take `CCCCCc1c2c(cc(O)c1C(=O)O)OC(=O)c1c(cc(OC)cc1C(=O)CCCC)O2` [lobaric acid]: the ΔΨm in assay [1] (composite Z-score vs DMSO) was −0.164. The cyt c with cytochrome c (composite Z-score vs DMSO, Conc 20 μM) is on record as −0.020. For the same compound, the GE-HTS in the assay on OXPHOS gene expression (composite Z-score vs DMSO) is given as −0.455. For the same compound, in the assay on C2C12 myotubes (composite Z-score vs DMSO), the Viability is recorded as 0.082. The ROS with reactive oxygen species (composite Z-score vs DMSO) turned out to be 0.860. Moreover, the mitoOX in the assay on mtOXPHOS transcripts (composite Z-score vs DMSO) is listed as −0.343. This compound also gave a nucOX with nuOXPHOS transcripts (composite Z-score vs DMSO) of −0.499. Besides, in assay [2] (composite Z-score vs DMSO), the MTT is recorded as −0.427.

Compound `Cc1cc(O)c2c(O)c3c(O)cccc3cc2c1` [chrysarobin] registered a ΔΨm in assay [1] (setting [3]) of −0.726. Further, the cyt c in the assay with cytochrome c (setting [4]) was −0.074. The same compound came in with a GE-HTS in the assay with OXPHOS gene expression (setting [3]) of −1.153. The compound also returned a Viability in the assay on C2C12 myotubes (setting [3]) of −0.685. This compound returned an ROS in the assay with reactive oxygen species (setting [3]) of 0.805. Moreover, in the assay with mtOXPHOS transcripts (setting [3]), the mitoOX is on record as −0.401. Besides, in the assay on nuOXPHOS transcripts (setting [3]), the nucOX was −1.387. Besides, the MTT in assay [2] (setting [3]) was −1.646.

In turn, `CC1=CC(=O)[C@H]2C(C)(C)CCC[C@]2(C)[C@@]1(O)CCc1ccoc1` [solidagenone] registered a ΔΨm in assay [1] (setting [3]) of −0.242. Further, the cyt c with cytochrome c (setting [4]) is recorded as −0.061. In the assay with OXPHOS gene expression (setting [3]), this compound yielded a GE-HTS of 0.127. In the assay on C2C12 myotubes (setting [3]), this compound showed a Viability of −0.409. Also, in the assay with reactive oxygen species (setting [3]), the ROS was found to be 1.734. In the assay with mtOXPHOS transcripts (setting [3]), this compound yielded a mitoOX of 0.441. For the same compound, the nucOX with nuOXPHOS transcripts (setting [3]) is given as −0.023. Also, in assay [2] (setting [3]), the MTT worked out at 0.084.

Turning to khayanthone, in assay [1] (setting [3]), the ΔΨm is recorded as 0.962. Moreover, the cyt c with cytochrome c (setting [4]) is listed as −0.669. In the assay on OXPHOS gene expression (setting [3]), the GE-HTS was found to be 1.491. The same compound came in with a Viability with C2C12 myotubes (setting [3]) of 1.156. Also, the ROS in the assay with reactive oxygen species (setting [3]) is 0.015. The compound also came in with a mitoOX with mtOXPHOS transcripts (setting [3]) of 1.095. In the assay on nuOXPHOS transcripts (setting [3]), this compound returned a nucOX of 1.510. For the same compound, the MTT in assay [2] (setting [3]) is given as −0.382.

For `OC[C@H]1O[C@@H](Oc2cc(O)cc(/C=C/c3ccc(O)cc3)c2)[C@H](O)[C@@H](O)[C@@H]1O` [piceid], the “ΔΨm (composite Z-score)” value in assay [1] (setting [8]) was found to be 0.088. Moreover, the “cyt c (composite Z-score)” value in the assay with cytochrome c (Conc 20 μM, normalized score vs mock-treated (DMSO) wells) turned out to be 0.272. The “GE-HTS (composite Z-score)” value with OXPHOS gene expression (setting [8]) amounted to 0.110. The “Viability (composite Z-score)” value in the assay with C2C12 myotubes (setting [8]) is −0.341. The “ROS (composite Z-score)” value in the assay on reactive oxygen species (setting [8]) came to 0.862. The “mitoOX (composite Z-score)” value with mtOXPHOS transcripts (setting [8]) is 0.124. The “nucOX (composite Z-score)” value with nuOXPHOS transcripts (setting [8]) is 0.088. Further, the “MTT (composite Z-score)” value in assay [2] (setting [8]) is −0.826.
